Measured values taken from patent publication US11253593B2, “Granulated anthelmintic preparations and delivery systems” (Argenta Innovation Limited, priority 2009, dated 2022).
Read-outs that look alike come from different tables or passages of the source.

What was measured:
[1] = Stability trial post mix of reconstituted abamectin liquid concentrate; type: physicochemical
Procedure: The stability of the reconstituted abamectin was investigated after storage at 20-25° C. for 4 days.

[2] = in vivo
Procedure: A cross-over study was performed to determine the blood plasma concentrations of abamectin, oxfendazole and levamisole following oral treatment with reconstituted granule product containing these three anthelmintics.
Eight female romney sheep of similar age and body weight were used. The criteria for selection was to include animals that had not been dosed with a persistent anthelmintic formulation within 6 months of selection for the trial. Persistent anthelmintics include slow release capsules (e.g. Bionic), injectable or oral forms of moxidectin and closantel. Sheep were acclimated to the study site for 14 days before treatment.
Each sheep was randomly assigned to the treatment group and received one treatment and then the alternate treatment 21 days later.
The study procedures were as follows: • sheep were weighed using calibrated scales on Day −1 for weight ranking and allocation to treatment groups. […] Granules were weighed and added with the calculated volume of water to a 2 litre schott bottle and inverted a number of times until the granules were wetted and fully dispersed. On the morning of treatment the schott bottle was again gently inverted 3 or 4 times to ensure a homogeneous mix and approximately 100 mL was decanted from which the syringe was filled for dosing. • Treatments were administered on Day 0 and Day 21 at a dose volume of 1 ml/5 kg. Dosing was done using a 12 mL graduated syringe. Dose volume and time of administration was recorded and checked for each sheep. • Blood samples were collected before treatment, and after treatment at 0.5, 1, 2, 6, 8, 12, 15, 24 and 36 hrs.
Oxfendazole plasma levels are presented as two separate plasma metabolites: oxfendazole and fenbendazole, and the total of these two expressed as “total-oxfendazole”. All plasma metabolite units are presented as mg/kg

[3] = In-use stability, physico-chemical, of reconstituted dual active drug product; settings: reconstituted drug product of 4.1; storage at 30 and 40° C. for 1 month
Procedure: The stability of reconstituted drug product was investigated after storage at 30 and 40° C. for 1 month.

[4] = In-use suspendability of reconstituted granule (oxfendazole as marker); type: physicochemical; settings: reconstituted granule of 4.1 in water 1.1 kg/5 L
Procedure: The concentration of the reconstituted granule in water was 1.1 kg/5 L. Oxfendazole was chosen as a marker compound for drug suspension stability.
(Levamisole Fully Soluble)
2 h: At the top was 96 mg/g and at the bottom was 105.2 mg/g
4 h: At the top was 98 mg/g and at the bottom was 99 mg/g
4 days: At the top was 95.7 mg/g and at the bottom was 98 mg/g

[5] = Chemical and physical stability of abamectin in reconstituted triple active formulation; type: physicochemical; settings: reconstituted with water, triple active formulation 6.1; storage at 30 and 40° C. for 1 month
Procedure: When reconstituted with water, the sstability of abamectin in the reconstituted triple active formulation was investigated after storage at 30 and 40° C. for 1 month.

[6] = female, Romney, sheep, in vivo, po
[7] = oral 1 ml/5 kg, pooled mean of 8 sheep, oxfendazole comparison
[8] = oral 1 ml/5 kg, pooled mean of 8 sheep, total oxfendazole comparison

OCc1ccccc1 [benzyl alcohol]
Degradation after reconstitution [1]: some degradation

COC(=O)Nc1nc2ccc(Sc3ccccc3)cc2[nH]1 [fenbendazole]
Tmax, plasma fenbendazole (metabolite) [2, 6]: 12 h | Cmax, plasma fenbendazole (metabolite) ([2]; sheep, in vivo, po): 0.209 mg/kg

c1ccc([C@H]2CN3CCSC3=N2)cc1 [levamisole]
Chemical degradation [3]: less than 2% | Tmax [2, 6]: 1 h | Cmax, plasma levamisole ([2]; sheep, in vivo, po): 1.445 mg/kg

COC(=O)Nc1nc2cc([S+]([O-])c3ccccc3)ccc2[nH]1 (stereo not shown) [oxfendazole]
Chemical degradation [3]: no chemical degradation | Oxfendazole concentration at the bottom ([4]; 2 h): 105.2 mg/g | Oxfendazole concentration at the top ([4]; 2 h): 96 mg/g | Oxfendazole concentration at the bottom ([4]; 4 h): 99 mg/g | Oxfendazole concentration at the top ([4]; 4 h): 98 mg/g | Oxfendazole concentration at the bottom ([4]; 4 days): 98 mg/g | Oxfendazole concentration at the top ([4]; 4 days): 95.7 mg/g | Oxfendazole concentration, initial ([4]; initial): 100 mg/g | Cmax, plasma oxfendazole [2, 7]: 0.792 mg/kg | Tmax, plasma oxfendazole [2, 7]: 15 h | Cmax, plasma total oxfendazole (oxfendazole + fenbendazole) [2, 8]: 0.984 mg/kg | Tmax, plasma total oxfendazole (oxfendazole + fenbendazole) [2, 8]: 12 h

abamectin
Degradation of abamectin [5]: less than 2% | Degradation after reconstitution ([1]; reconstituted liquid concentrate of Example 9, storage at 20-25° C. for 4 days): no degradation | Tmax, plasma abamectin ([2]; oral 1 ml/5 kg, pooled mean of 8 sheep, abamectin comparison): 24 h | Cmax, plasma abamectin ([2]; oral 1 ml/5 kg, pooled mean of 8 sheep, both cross-over phases, abamectin comparison): 0.017 mg/kg
